Where a name gives a salt, the structure may show the parent alone.
Each compound was assayed against T1, human Cot/Tpl2 kinase (Homo sapiens, UniProt P41279) (assay: Tpl2/Cot kinase assay, GST-MEK1 phosphorylation detected by ELISA (DELFIA Eu)). Conditions: Table 1; 0.4 nM Tpl2, 35 nM GST-MEK1, 50 uM ATP, 1 h at 30° C.
T1 construct: human Cot/Tpl2 kinase construct encoding residues 30-398; 6His (N); made in house; host or cells: Sf9 insect cells (baculovirus system, BD Biosciences)
Type: biochemical
Protocol: Sf9 cells expressing the kinase were lysed in 50 mM NaPhosphate pH=8; 300 mM NaCl; 5 mM imidazole; 0.1 mM EGTA; 25 mM beta-glycerophosphate; 1% TX-100, 1% glycerol; 6 mM beta-mercaptoethanol and protease inhibitors. The lysate was clarified by centrifugation and was loaded onto a Ni-Sepharose column. The column was washed with 50 mM NaPhosphate pH=8; 300 mM NaCl; 15 mM imidazole; 1% glycerol; and 6 mM beta-mercaptoethanol. His-Tpl2 was eluted with 50 mM NaPhosphate pH=8; 300 mM NaCl; 250 mM imidazole; 1% glycerol; and 6 mM beta-mercaptoethanol. The eluted protein was further purified by size exclusion chromatography. Fractions corresponding to monomeric Tpl2 were then used in the assay.
Tpl2/Cot activity was directly assayed using GST-MEK1 as a substrate. GST-MEK1 phosphorylation on serine residues 217 and 221 was detected by ELISA. 0.4 nM Tpl2 was incubated with 35 nM GST-MEK1 in a kinase reaction buffer containing 20 mM MOPS pH=7.2; 50 uM ATP; 20 mM MgCl2; 1 mM DTT; 25 mM β-glycerophosphate; 5 mM EGTA; and 1 mM sodium orthovanadate for 1 h at 30° C. The compounds of the inventions solubilized in 100% DMSO were pre-diluted in assay buffer so that the final concentration of DMSO in the reaction was 1%. The kinase reaction was carried out in 100 ul volume on 96 well plates. The kinase reaction was then stopped with the addition of 100 mM EDTA. […] After a 1 hour incubation at room temperature, the detection plate was washed 4 times with TBST (TBS+0.05% Tween 20) and then incubated for another hour at room temperature with anti phospho-MEK1 antibody (Cell Signaling) 1:1000 in 10 mM MOPS 7.5; 150 mM NaCl; 0.05% Tween 20; 0.1% Gelatin; 0.02% NaN3; and 1% BSA. The detection plate was washed again and incubated for 30 min with DELFIA Europium (Eu) labeled goat anti-rabbit IgG (Perkin-Elmer), 1:4000 in the same buffer used for the primary incubation. After a final wash, Eu detection solution was added to each well and the Eu signal was measured in a Wallac Victor^2 Multilabel Counter. IC50 calculations were preformed using the XLfit software package (IDBS, Guildford, UK).

T1 sequence (P41279 30-398): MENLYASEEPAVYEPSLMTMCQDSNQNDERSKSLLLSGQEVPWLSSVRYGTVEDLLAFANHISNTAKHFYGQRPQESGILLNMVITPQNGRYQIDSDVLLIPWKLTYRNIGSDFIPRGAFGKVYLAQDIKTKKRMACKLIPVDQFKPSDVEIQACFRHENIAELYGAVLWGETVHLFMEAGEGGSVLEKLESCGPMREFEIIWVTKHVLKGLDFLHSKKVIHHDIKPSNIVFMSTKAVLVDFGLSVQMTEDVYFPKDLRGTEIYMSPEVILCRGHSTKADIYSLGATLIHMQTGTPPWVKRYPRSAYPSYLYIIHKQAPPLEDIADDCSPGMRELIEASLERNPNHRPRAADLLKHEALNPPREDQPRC

SMILES | IC50 [nM]
N#Cc1cnc2cnc(NCCN3CCOCC3)cc2c1Nc1cccc(Oc2ccccc2)c1 [Example 2, 6-(2-morpholinoethylamino)-4-(3-phenoxyphenylamino)-1,7-naphthyridine-3-carbonitrile] | 11600
N#Cc1cnc2cnc(NCCN3CCOCC3)cc2c1Nc1ccc(F)cc1 [Example 4, 4-(4-fluorophenylamino)-6-(2-morpholinoethylamino)-1,7-naphthryidine-3-carbonitrile] | 10700
N#Cc1cnc2cnc(NCCN3CCOCC3)cc2c1Nc1ccc(Br)cc1 [Example 5, 4-(4-bromophenylamino)-6-(2-morpholinoethylamino)-1,7-naphthyridine-3-carbonitrile] | > 40000
N#Cc1cnc2cnc(NCCN3CCOCC3)cc2c1Nc1ccc(Nc2ccccc2)cc1 [Example 10, 6-(2-morpholinoethylamino)-4-(4-(phenylamino)phenylamino)-1,7-naphthyridine-3-carbonitrile] | 7600
N#Cc1cnc2cnc(NCc3cccnc3)cc2c1Nc1cccc(Oc2ccccc2)c1 [Example 15, 4-(3-phenoxyphenylamino)-6-(pyridin-3-ylmethylamino)-1,7-naphthyridine-3-carbonitrile] | > 40000
N#Cc1cnc2cnc(NCc3cccnc3)cc2c1Nc1ccc(Cl)cc1 [Example 16, 4-(4-chlorophenylamino)-6-(pyridin-3-ylmethylamino)-1,7-naphthyridine-3-carbonitrile] | > 10000
N#Cc1cnc2cnc(NCc3cccnc3)cc2c1Nc1ccc(Br)cc1 [Example 17, 4-(4-bromophenylamino)-6-(pyridin-3-ylmethylamino)-1,7-naphthyridine-3-carbonitrile] | > 10000
N#Cc1cnc2cnc(NCc3cccnc3)cc2c1Nc1ccc(Nc2ccccc2)cc1 [Example 18, 4-(4-(phenylamino)phenylamino)-6-(pyridin-3-ylmethylamino)-1,7-naphthyridine-3-carbonitrile] | > 10000
N#Cc1cnc2cnc(NCCN3CCOCC3)cc2c1Nc1ccc(C(=O)c2ccccc2)cc1 [Example 27, 4-(4-benzoylphenylamino)-6-(2-morpholinoethylamino)-1,7-naphthyridine-3-carbonitrile] | 4600
Cc1cccc(Nc2c(C#N)cnc3cnc(NCc4cccnc4)cc23)c1 [Example 29, 4-(3-methylphenylamino)-6-(pyridin-3-ylmethylamino)-1,7-naphthyridine-3-carbonitrile] | > 40000
COC(=O)c1ccc(Nc2c(C#N)cnc3cnc(NCc4cccnc4)cc23)cc1 [Example 30, Methyl 4-(3-cyano-6-(pyridin-3-ylmethylamino)-1,7-naphthyridin-4-ylamino)benzoate] | > 40000
COc1ccc(Nc2c(C#N)cnc3cnc(NCCN4CCOCC4)cc23)cc1 [Example 31, 4-(4-methoxyphenylamino)-6-(2-morpholinoethylamino)-1,7-naphthyridine-3-carbonitrile] | > 40000
N#Cc1cnc2cnc(NCc3cccnc3)cc2c1Nc1cccc(OC(F)(F)F)c1 [Example 32, 6-(pyridin-3-ylmethylamino)-4-(3-(trifluoromethoxy)phenylamino)-1,7-naphthyridine-3-carbonitrile] | > 40000
N#Cc1cnc2cnc(NCc3cccnc3)cc2c1Nc1ccc(OC(F)(F)F)cc1 [Example 33, 6-(pyridin-3-ylmethylamino)-4-(4-(trifluoromethoxy)phenylamino)-1,7-naphthyridine-3-carbonitrile] | > 40000
N#Cc1cnc2cnc(N)cc2c1Nc1ccc(F)c(Cl)c1 [Example 35, 6-amino-4-[(3-chloro-4-fluorophenyl)amino]-1,7-naphthyridine-3-carbonitrile] | 5000
CC(C)c1cccc(Nc2c(C#N)cnc3cnc(OCCN4CCOCC4)cc23)c1 [Example 36, 4-[(3-isopropylphenyl)amino]-6-(2-morpholin-4-ylethoxy)-1,7-naphthyridine-3-carbonitrile] | > 40000
CC(C)c1cccc(Nc2c(C#N)cnc3cnc(NCCN4CCOCC4)cc23)c1 [Example 37, 4-[(3-isopropylphenyl)amino]-6-[(2-morpholin-4-ylethyl)amino]-1,7-naphthyridine-3-carbonitrile] | > 40000
COc1ccc(CNc2cc3c(Nc4cccc(C(C)C)c4)c(C#N)cnc3cn2)cc1 [Example 38, 4-[(3-isopropylphenyl)amino]-6-[(4-methoxybenzyl)amino]-1,7-naphthyridine-3-carbonitrile] | > 40000
N#Cc1cnc2cnc(OCCN3CCOCC3)cc2c1Nc1ccc(F)c(Cl)c1 [Example 39, 4-[(3-chloro-4-fluorophenyl)amino]-6-(2-morpholin-4-ylethoxy)-1,7-naphthyridine-3-carbonitrile] | > 40000

These reach a lower IC50. Values come first.

IC50 [nM] | SMILES
3600 | N#Cc1cnc2cnc(NCCN3CCOCC3)cc2c1Nc1ccc(F)c(F)c1 [Example 13, 4-(3,4-difluorophenylamino)-6-(2-morpholinoethylamino)-1,7-naphthryidine-3-carbonitrile]
1700 | N#Cc1cnc2cnc(NCc3cccnc3)cc2c1Nc1ccc(F)cc1 [Example 9, 4-(4-fluorophenylamino)-6-(pyridin-3-ylmethylamino)-1,7-naphthyridine-3-carbonitrile]
1160 | N#Cc1cnc2cnc(NCCN3CCOCC3)cc2c1Nc1cccc(Cl)c1 [Example 3, 4-(3-chlorophenylamino)-6-(2-morpholinoethylamino)-1,7-naphthyridine-3-carbonitrile]
1120 | N#Cc1cnc2cnc(NCCN3CCOCC3)cc2c1Nc1cccc(F)c1 [Example 24, 4-(3-fluorophenylamino)-6-(2-morpholinoethylamino)-1,7-naphthyridine-3-carbonitrile]
290 | N#Cc1cnc2cnc(NCc3cccnc3)cc2c1Nc1ccc(F)c(F)c1 [Example 20, 4-(3,4-difluorophenylamino)-6-(pyridin-3-ylmethylamino)-1,7-naphthyridine-3-carbonitrile]
79 | CN1CCN(CCCNc2cc3c(Nc4ccc(Cc5ccccc5)cc4)c(C#N)cnc3cn2)CC1 [Example 22, 4-(4-benzylphenylamino)-6-(3-(4-methylpiperazin-1-yl)propylamino)-1,7-naphthyridine-3-carbonitrile]
65 | N#Cc1cnc2cnc(NCc3cccnc3)cc2c1Nc1cccc(Cl)c1 [Example 12, 4-(3-chlorophenylamino)-6-(pyridin-3-ylmethylamino)-1,7-naphthyridine-3-carbonitrile]
50 | N#Cc1cnc2cnc(NCc3cccnc3)cc2c1Nc1ccc(F)c(Cl)c1 [Example 1, 4-(3-chloro-4-fluorophenylamino)-6-(pyridin-3-ylmethylamino)-1,7-naphthyridine-3-carbonitrile]
38 | N#Cc1cnc2cnc(NCCN3CCNCC3)cc2c1Nc1ccc(Cc2ccccc2)cc1 [Example 25, 4-(4-benzylphenylamino)-6-(2-(piperazin-1-yl)ethylamino)-1,7-naphthyridine-3-carbonitrile, hydrochloride salt]
36 | CN(C)CCNc1cc2c(Nc3ccc(Cc4ccccc4)cc3)c(C#N)cnc2cn1 [Example 23, 4-(4-benzylphenylamino)-6-(2-(dimethylamino)ethylamino)-1,7-naphthyridine-3-carbonitrile]
17 | N#Cc1cnc2cnc(NCc3cccnc3)cc2c1Nc1ccc(Cc2ccccc2)cc1 [Example 14, 4-(4-benzylphenylamino)-6-(pyridin-3-ylmethylamino)-1,7-naphthryidine-3-carbonitrile]
9.6 | CN(C)CCCNc1cc2c(Nc3ccc(Cc4ccccc4)cc3)c(C#N)cnc2cn1 [Example 21, 4-(4-benzylphenylamino)-6-(3-(dimethylamino)propylamino)-1,7-naphthyridine-3-carbonitrile]
9 | N#Cc1cnc2cnc(NCc3cccnc3)cc2c1Nc1ccc(Sc2ccccc2)cc1 [Example 19, 4-(4-(phenylthio)phenylamino)-6-(pyridin-3-ylmethylamino)-1,7-naphthyridine-3-carbonitrile]
8 | N#Cc1cnc2cnc(NCCN3CCOCC3)cc2c1Nc1ccc(Cc2ccccc2)cc1 [Example 7, 4-(4-benzylphenylamino)-6-(2-morpholinoethylamino)-1,7-naphthyridine-3-carbonitrile]
6 | N#Cc1cnc2cnc(NCCN3CCOCC3)cc2c1Nc1ccc(Sc2ccccc2)cc1 [Example 11, 6-(2-morpholinoethylamino)-4-(4-(phenylthio)phenylamino)-1,7-naphthyridine-3-carbonitrile]
